Where two headings read alike, the source gives them in different places.
How the values were obtained:
[1] = tested on: Pseudomonas aeruginosa efflux+ (MB9798), IMP-1; type: cell-based; parameters: Concentration of metallo-β-lactamase inhibitor which restores susceptibility of efflux + (MB9798) strain to imipenem: unit not given here; conditions: C, D serine β-lactamase inhibitor closely related to relebactam; for P. aeruginosa expressing IMP-1, efflux + (MB9798) MITC95: concentration restoring susceptibility to imipenem at 2 μg/mL in the presence of a class A; for Concentration of metallo-β-lactamase inhibitor which restores susceptibility of efflux + (MB9798) strain to imipenem: imipenem at 2 μg/mL, in the presence of a class A
From the text: (§1) The strain background was Pseudomonas aeruginosa PAO1.
(§2) The strain set was then used as a pair to determine the effect of metallo-β-lactamase inhibitors of Formula I on the MIC of imipenem and/or ceftazidime. A fixed concentration of antibiotic was included in standard microbroth MIC tests, usually at the CLSI (Clinical and Laboratory Standards Institute) breakpoint concentration. A fixed amount of a class A/C beta-lactamase inhibitor was also included to inhibit the resident Pseudomonas AmpC enzyme. A serial titration of the metallo-β-lactamase inhibitor was included and the concentration of metallo-β-lactamase inhibitor which restores susceptibility of the strain to the included antibiotic was recorded. That concentration of metallo-β-lactamase inhibitor was then compared between the two strains to determine the fold difference between the efflux+ (MB9798) and efflux− (MB9799) strains. This was taken as an indication of the extent to which the MBLi is subject to efflux.

[2] = tested on: Pseudomonas aeruginosa efflux− (MB9799), IMP-1; type: cell-based; conditions: C, D serine β-lactamase inhibitor closely related to relebactam; for P. aeruginosa expressing IMP-1, efflux − (MB9799) MITC95: concentration restoring susceptibility to imipenem at 2 μg/mL in the presence of a class A; for Concentration of metallo-β-lactamase inhibitor which restores susceptibility of efflux − (MB9799) strain to imipenem: imipenem at 2 μg/mL, in the presence of a class A
From the text: as §1, §2

[3] = tested on: Klebsiella pneumoniae expressing VIM-1 (IHMA599644); type: cell-based; conditions: for Klebsiella pneumoniae expressing VIM-1 (IHMA599644) MITC95: with imipenem 1 μg/ml, 95% inhibition of bacterial growth; for Klebsiella pneumoniae MITC95: VIM-1 strain IHMA599644, with imipenem 1 μg/ml, 95% inhibition of growth
Method: (§3) Antibiotic Potentiation Activity: Determination of Synergistic Concentration
(§4) The bacterial strains tested included the clinical strains Escherichia coli expressing NDM-1 (CLB30005, CLB30016), Serratia marcescens expressing IMP-1 (CL5741), and Klebsiella pneumoniae expressing VIM-1 (IHMA599644). Inhibitor activity was measured in the presence and absence of imipenem in a 384-well microplate.
(§5) The clinical strains CLB30016, CL5741 and IHMA599644 were grown on trypticase soy agar containing 5% sheep's blood. The bacteria on agar plates were incubated at 35° C. with humidity overnight. The following day, individual colonies from each clinical strain were picked and resuspended in 5 ml saline to attain an OD600 of […], for CLB30016, CL5741 and IHMA599644, respectively. These were further diluted 1:100 into 1.1×CAMHB and used to inoculate the test wells as described below.
(§6) Imipenem in 10 mM 3-(N-morpholino)propanesulfonic acid (MOPS, pH 7) was stored in single use aliquots at −80° C. […] On the day of the assay, 4 μl of antibiotic was added to 45 ul of bacteria followed by 1 μl of test compound and mixed by pipetting and with an orbital shaker. The concentration of antibiotic used in the assay was 1 μg/ml. Microplates were covered and incubated at 35° C. for 22 hours to 24 hours. At the end of the incubation, absorbance was determined using a spectrophotometer.

[4] = tested on: Serratia marcescens expressing IMP-1 (CL5741); type: cell-based; conditions: for Serratia marcescens expressing IMP-1 (CL5741) MITC95: with imipenem 1 μg/ml, 95% inhibition of bacterial growth; for Serratia marcescens MITC95: IMP-1 strain CL5741, with imipenem 1 μg/ml, 95% inhibition of growth
Method: as §3, §4, §5, §6

[5] = tested on: Escherichia coli expressing NDM-1 (CLB30005, CLB30016); type: cell-based; conditions: with imipenem 1 μg/ml; for Escherichia coli expressing NDM-1 (CLB30016) MITC95: 95% inhibition of bacterial growth; for Escherichia coli MITC95: NDM-1 strain, 95% inhibition of growth
Method: as §3, §4, §5, §6

[6] = target: VIM-1 (Pseudomonas aeruginosa (strain ATCC 15692 / DSM 22644 / CIP 104116 / JCM 14847 / LMG 12228 / 1C / PRS 101 / PAO1), UniProt A0A0F7KYQ8); test: biochemical; conditions: CCF2-FA substrate, 30 pM enzyme, 2 hours at 25° C.
Method: (§7) Enzyme Activity: Determination of IC50
(§8) The Class B enzyme activities were measured in the presence of the test inhibitor in a fluorescence assay against a commercially available substrate consisting of a cephalosporin core linking 7-hydroxycoumarin to fluorescein (CCF2-FA). […] In a 384-well microplate, the test inhibitor was incubated with the metallo-β-lactamase enzyme and the substrate for 2 hours at 25° C. […] The IC50 value was determined from semi-logarithmic plots of enzyme inhibition versus inhibitor concentration, with a curve generated using a 4-parameter fit.

[7] = target: NDM-1 (Klebsiella pneumoniae, UniProt C7C422); test: biochemical; type: biochemical; conditions: fluorescence assay, CCF2-FA substrate, 1 pM enzyme, 2 hours at 25° C.; read-out: NDM-1 IC50
Method: as §7, §8

[8] = target: IMP-1 (Serratia marcescens, UniProt P52699); test: biochemical; type: biochemical; conditions: fluorescence assay, CCF2-FA substrate, 2 pM enzyme, 2 hours at 25° C.; read-out: IMP-1 IC50
Method: as §7, §8

[9] = fluorescence assay, read-out: VIM-1 IC50

Sequence of IMP-1 (P52699 whole entry, looked up, species assumed): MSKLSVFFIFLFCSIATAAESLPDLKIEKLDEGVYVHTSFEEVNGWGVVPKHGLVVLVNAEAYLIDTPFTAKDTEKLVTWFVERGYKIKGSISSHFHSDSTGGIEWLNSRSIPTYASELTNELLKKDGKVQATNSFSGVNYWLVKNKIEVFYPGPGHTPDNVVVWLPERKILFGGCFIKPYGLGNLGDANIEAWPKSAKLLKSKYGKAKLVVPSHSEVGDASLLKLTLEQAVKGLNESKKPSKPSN
Sequence of NDM-1 (C7C422 whole entry, looked up, species assumed): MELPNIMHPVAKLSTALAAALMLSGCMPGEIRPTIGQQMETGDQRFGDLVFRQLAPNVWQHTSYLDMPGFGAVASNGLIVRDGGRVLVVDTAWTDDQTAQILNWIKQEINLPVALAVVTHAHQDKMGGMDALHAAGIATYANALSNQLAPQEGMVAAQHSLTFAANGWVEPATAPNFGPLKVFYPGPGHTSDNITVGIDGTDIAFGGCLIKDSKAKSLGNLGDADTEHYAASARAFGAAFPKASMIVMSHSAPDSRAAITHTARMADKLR

Row | Structure (SMILES) | P. aeruginosa expressing IMP-1, efflux + (MB9798) MITC95 [1] | P. aeruginosa expressing IMP-1, efflux − (MB9799) MITC95 [2] | Klebsiella pneumoniae expressing VIM-1 (IHMA599644) MITC95 [3] | Serratia marcescens expressing IMP-1 (CL5741) MITC95 [4] | Escherichia coli expressing NDM-1 (CLB30016) MITC95 [5] | IC50 ([6]; VIM-1 IC50, fluorescence assay) | IC50 [7] | IC50 [6, 9] | Klebsiella pneumoniae MITC95 [3] | Serratia marcescens MITC95 [4] | Escherichia coli MITC95 [5] | Concentration of metallo-β-lactamase inhibitor which restores susceptibility of efflux + (MB9798) strain to imipenem [1] | Concentration of metallo-β-lactamase inhibitor which restores susceptibility of efflux − (MB9799) strain to imipenem [2] | IC50 [8]
1 | Nc1nc2c(-c3ccc(S(=O)(=O)N[C@H]4C[C@H](N)C4)c(S(N)(=O)=O)c3-c3nnn[nH]3)cccc2s1.O=C(O)C(F)(F)F [Example 98, (1r,3r)-3-(4-(2-aminobenzo[d]thiazol-4-yl)-2-sulfamoyl-3-(1H-tetrazol-5-yl)phenylsulfonamido)cyclobutanaminium 2,2,2-trifluoroacetate] | 0.7813 µM | 1.042 µM | 2.604 µM | 1.563 µM | 1.823 µM | 0.169 nM | 0.0365 nM |  |  |  |  |  |  | 
2 | Nc1nc2c(-c3ccc(S(=O)(=O)N4CC5C(N)C5C4)c(S(N)(=O)=O)c3-c3nnn[nH]3)cccc2s1.O=C(O)C(F)(F)F [Example 113, (1R,5S,6s)-3-((4-(2-aminobenzo[d]thiazol-4-yl)-2-sulfamoyl-3-(1H-tetrazol-5-yl)phenyl)sulfonyl)-3-azabicyclo[3.1.0]hexan-6-aminium 2,2,2-trifluoroacetate] | 1.563 µM | 1.563 µM | 3.125 µM | 3.125 µM | 1.563 µM |  | 0.646 nM | 0.773 nM |  |  |  |  |  | 
3 | CC(C)(CN)NS(=O)(=O)c1ccc(-c2cccc3sc(N)nc23)c(-c2nnn[nH]2)c1S(N)(=O)=O.O=CO [Example 117, 2-(4-(2-aminobenzo[d]thiazol-4-yl)-2-sulfamoyl-3-(1H-tetrazol-5-yl)phenylsulfonamido)-2-methylpropan-1-aminium formate] | 1.563 µM | 1.563 µM | 3.125 µM | 3.125 µM | 6.25 µM |  | 0.0126 nM | 0.183 nM |  |  |  |  |  | 
4 | Nc1nc2c(-c3ccc(S(=O)(=O)NCC(N)C(F)F)c(S(N)(=O)=O)c3-c3nnn[nH]3)cccc2s1.O=CO (stereo not shown) [Example 118, 3-(4-(2-aminobenzo[d]thiazol-4-yl)-2-sulfamoyl-3-(1H-tetrazol-5-yl)phenylsulfonamido)-1,1-difluoropropan-2-aminium formate] | 12.5 µM | 3.125 µM | 12.5 µM | 6.25 µM | 25 µM | 0.289 nM | 0.026 nM |  |  |  |  |  |  | 
5 | Nc1nc2c(-c3ccc(S(=O)(=O)NC[C@@H]4CCCN4)c(S(N)(=O)=O)c3-c3nnn[nH]3)cccc2s1.O=CO [Example 125, (S)-2-((4-(2-aminobenzo[d]thiazol-4-yl)-2-sulfamoyl-3-(1H-tetrazol-5-yl)phenylsulfonamido)methyl)pyrrolidin-1-ium formate] | 0.7813 µM | 1.563 µM | 3.125 µM | 1.563 µM | 1.563 µM |  | 0.0465 nM | 0.196 nM |  |  |  |  |  | 
6 | Nc1nc2c(-c3ccc(S(=O)(=O)NC[C@H]4CCCN4)c(S(N)(=O)=O)c3-c3nnn[nH]3)cccc2s1.O=CO [Example 126, (R)-2-((4-(2-aminobenzo[d]thiazol-4-yl)-2-sulfamoyl-3-(1H-tetrazol-5-yl)phenylsulfonamido)methyl)pyrrolidin-1-ium formate] | 0.7813 µM | 1.563 µM | 3.125 µM | 1.563 µM | 1.563 µM |  | 0.0569 nM | 0.18 nM |  |  |  |  |  | 
7 | NCCNS(=O)(=O)c1ccc(-c2cccc3ncccc23)c(-c2nn[nH]n2)c1S(N)(=O)=O [Example 360, N1-(2-aminoethyl)-4-(quinolin-5-yl)-3-(2H-tetrazol-5-yl)benzene-1,2-disulfonamide] | 1.563 µM | 1.563 µM |  |  |  | 0.135 nM |  |  | 3.125 µM | 1.563 µM | 1.563 µM |  |  | 
8 | CCOC(=O)c1sc(N)nc1-c1cccc(-c2ccc(S(=O)(=O)NC(CN)CN)c(S(N)(=O)=O)c2-c2nnn[nH]2)c1 [Example 431] |  |  |  |  |  |  | 0.0739 nM |  | 6.25 µM | 3.125 µM | 3.125 µM | 12.5 | 1.563 | 0.133 nM
9 | NCCNS(=O)(=O)c1ccc(-c2cccc3[nH]c(C4CNC4)nc23)c(-c2nn[nH]n2)c1S(N)(=O)=O [Example 443, N1-(2-aminoethyl)-4-(2-(azetidin-3-yl)-1H-benzo[d]imidazol-4-yl)-3-(2H-tetrazol-5-yl)benzene-1,2-disulfonamide] |  |  |  |  |  |  | 0.0814 nM |  | 1.172 µM | 1.563 µM | 0.7813 µM | 0.7813 | 0.7813 | 0.79 nM
10 | Nc1ccc(-c2ccc(S(=O)(=O)N[C@@H]3CCCNC3)c(S(N)(=O)=O)c2-c2nn[nH]n2)cn1 [Example 490, (R)-4-(6-aminopyridin-3-yl)-N1-(piperidin-3-yl)-3-(2H-tetrazol-5-yl)benzene-1,2-disulfonamide] |  |  |  |  |  |  | 0.0439 nM |  | 3.125 µM | 1.563 µM | 0.7813 µM | 1.563 | 1.563 | 0.176 nM
11 | Nc1ccc(-c2ccc(S(=O)(=O)N[C@H]3CCCNC3)c(S(N)(=O)=O)c2-c2nn[nH]n2)cn1 [Example 494, (S)-4-(6-aminopyridin-3-yl)-N1-(piperidin-3-yl)-3-(2H-tetrazol-5-yl)benzene-1,2-disulfonamide] |  |  |  |  |  |  | 0.276 nM |  | 3.125 µM | 1.563 µM | 0.7813 µM | 3.125 | 1.563 | 0.808 nM
